From publication PMC7801734, “Discovery of a new molecule inducing melanoma cell death: dual AMPK/MELK targeting for novel melanoma therapies” (Cell Death & Disease, 2021)

Legend:
Assay type in all cases: biochemical
MAPKAPK2 = MAPKAPK2 (Homo sapiens, UniProt P49137); assay: Z'-LYTE kinome assay at […] (ATP Km app), n = […]; conditions: read-out: CRO15 1 μM
[1] = target: T1, MELK (maternal embryonic leucine zipper kinase) (Homo sapiens, UniProt Q14680); assay: Z'-LYTE kinome assay at […] (ATP Km app); ADP-Glo dose-response with recombinant MELK; supported by biotin-CRO15 pull-down
T1 construct: recombinant MELK protein
T1 sequence (Q14680 whole entry): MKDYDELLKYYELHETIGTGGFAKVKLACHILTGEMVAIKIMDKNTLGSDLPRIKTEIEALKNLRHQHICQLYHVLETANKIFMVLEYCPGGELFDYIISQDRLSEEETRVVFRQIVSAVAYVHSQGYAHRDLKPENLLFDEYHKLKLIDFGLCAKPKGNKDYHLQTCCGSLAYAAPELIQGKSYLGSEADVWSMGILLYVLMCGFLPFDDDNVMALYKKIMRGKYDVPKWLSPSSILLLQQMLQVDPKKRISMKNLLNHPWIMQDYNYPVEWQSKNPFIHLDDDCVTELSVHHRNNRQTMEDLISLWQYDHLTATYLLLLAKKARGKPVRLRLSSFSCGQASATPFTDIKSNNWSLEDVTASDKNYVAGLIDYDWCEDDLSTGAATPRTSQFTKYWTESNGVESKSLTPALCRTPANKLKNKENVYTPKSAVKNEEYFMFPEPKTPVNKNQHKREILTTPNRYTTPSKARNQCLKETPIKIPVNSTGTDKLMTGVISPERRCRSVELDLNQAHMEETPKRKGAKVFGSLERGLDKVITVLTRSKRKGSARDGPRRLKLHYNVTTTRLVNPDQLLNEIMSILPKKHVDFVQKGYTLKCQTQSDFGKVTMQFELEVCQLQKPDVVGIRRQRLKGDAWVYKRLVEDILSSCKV

AKT2 (PKB beta) = AKT2 (PKB beta) (Homo sapiens, UniProt P31751); assay: Z'-LYTE kinome assay at […], n = […]; conditions: read-out: CRO15 1 μM
AKT2 (PKB beta), sequence (P31751 whole entry): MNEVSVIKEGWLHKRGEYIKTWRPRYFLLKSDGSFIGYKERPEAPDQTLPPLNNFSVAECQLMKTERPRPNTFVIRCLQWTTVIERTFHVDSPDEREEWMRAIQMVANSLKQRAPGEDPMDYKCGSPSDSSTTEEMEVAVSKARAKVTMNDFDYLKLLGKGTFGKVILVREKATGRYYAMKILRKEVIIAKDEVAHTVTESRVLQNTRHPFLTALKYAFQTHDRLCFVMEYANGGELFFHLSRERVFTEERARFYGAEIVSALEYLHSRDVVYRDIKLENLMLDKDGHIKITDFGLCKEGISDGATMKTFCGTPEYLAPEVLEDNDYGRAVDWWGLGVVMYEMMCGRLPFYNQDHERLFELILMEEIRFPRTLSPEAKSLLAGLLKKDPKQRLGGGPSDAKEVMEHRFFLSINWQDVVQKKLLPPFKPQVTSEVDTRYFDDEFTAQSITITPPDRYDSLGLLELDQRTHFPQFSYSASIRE

GSK3B (GSK3 beta) = GSK3B (GSK3 beta) (Homo sapiens, UniProt P49841); assay: Z'-LYTE kinome assay at […] (ATP Km app), n = […]; conditions: read-out: CRO15 1 μM
GSK3B (GSK3 beta), sequence (P49841 whole entry): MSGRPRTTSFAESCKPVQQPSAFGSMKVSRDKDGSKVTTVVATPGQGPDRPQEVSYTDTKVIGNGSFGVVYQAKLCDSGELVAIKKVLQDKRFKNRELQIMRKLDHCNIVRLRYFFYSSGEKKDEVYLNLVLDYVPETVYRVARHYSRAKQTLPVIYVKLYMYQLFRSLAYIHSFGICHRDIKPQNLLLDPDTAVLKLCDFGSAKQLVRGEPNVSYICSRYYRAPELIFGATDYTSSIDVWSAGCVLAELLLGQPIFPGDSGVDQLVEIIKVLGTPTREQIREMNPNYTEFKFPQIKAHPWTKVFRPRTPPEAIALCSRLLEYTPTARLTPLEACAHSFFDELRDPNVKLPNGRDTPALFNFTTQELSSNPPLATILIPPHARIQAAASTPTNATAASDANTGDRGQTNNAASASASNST

MAPKAPK2, sequence (P49137 whole entry): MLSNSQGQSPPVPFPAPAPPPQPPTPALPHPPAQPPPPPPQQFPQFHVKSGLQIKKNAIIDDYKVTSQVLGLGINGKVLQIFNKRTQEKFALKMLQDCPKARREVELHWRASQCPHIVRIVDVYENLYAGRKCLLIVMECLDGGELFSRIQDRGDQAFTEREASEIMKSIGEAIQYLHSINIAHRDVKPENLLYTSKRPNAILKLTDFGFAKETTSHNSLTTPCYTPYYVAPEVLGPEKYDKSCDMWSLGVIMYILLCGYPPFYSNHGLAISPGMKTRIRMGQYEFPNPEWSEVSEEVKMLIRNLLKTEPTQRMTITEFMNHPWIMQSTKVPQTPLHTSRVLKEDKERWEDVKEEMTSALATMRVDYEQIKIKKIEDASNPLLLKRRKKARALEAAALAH

Nc1nc(Nc2ccccc2SSc2ccccc2Nc2nc(N)nc(C(Cl)(Cl)Cl)n2)nc(C(Cl)(Cl)Cl)n1 [CRO15]
inhibition at 1 µM (MAPKAPK2): 90%
inhibition at 1 µM [1]: 72%
inhibition at 1 µM (AKT2 (PKB beta)): 74%
inhibition at 1 µM (GSK3B (GSK3 beta)): 72%
